US20220015355A1, “NOVEL CARRIER FLUIDS FOR LIQUID FUNGAL SPORE FORMULATIONS” (priority 2018, published 2022)
Like-named read-outs stand apart in the source and are kept apart here. Marks after values point to notes of the source that are not given here.

Columns and labels:
[1] = tested on: P. lilacinum strain 251 spores; assay: spore viability (germination rate on agar) of P. lilacinum spores in carrier fluid after storage at 30° C.; assay type: cell-based, Purpureocillium lilacinum; settings: for decline in spore viability at day 1 and after storage: fluids not within the scope of the invention
Procedure: (§1) 3 g of P. lilacinum strain 251 pure spore powder were transferred into a formulation vessel (IKA Type DT-20 mixing vessel with dispersion tool for Ultra Turrax) using a sterile spoon. 12 mL of fluid were added into the respective formulation vessel and dispersed using ultra turrax tube drive control for 1 min at 3000 rpm; change direction after 30 sec. After this 2.8 mL were transferred in four sample bottles (Wheaton Serum vial, Type I) leaving little headspace and closed tight using crimpneck caps (Macherey—Nagel type N 13) Afterwards all sample bottles were transferred to an incubator set at 30° C. and stored for a given time.
(§2) In regular intervals a sample was retrieved from the storage location and analyzed for spore viability. Therefore the original samples were thoroughly homogenized. Aliquots of 0.25 g or […] of each sample are transferred into 50 mL falcon tubes. The tubes were filled up to 25 g using a sterile aqueous solution containing 2% Tween 80 and homogenized by vortexing to achieve the first dilution step (1:100 dilution). This dilution is used for further dilution and spotting on agar.
(§3) For evaluation of spore germination rate prepare a 1:30000 dilution based on the 1:100 dilution achieved by multiple automated dilution (pipetting robot, 96 well plate). Afterwards 12×12 cm agar plates are taken and spotted with 10 times […] of each sample using an automated 12-Channel pipet. Wait until liquid is soaked up by agar and transfer agar plate to an incubator and incubate at 25° C. for 17 hours. Open the plate and place it under the microscope. Randomly choose one area per spot and record the number of germinated and non-germinated spores that are within the designated field. At least 200 spores per sample need to be evaluated. If needed count more than one field per spot.

[2] = tested on: Isaria fumosorosea spores; assay: spore viability of Isaria fumosorosea spores in carrier fluid after storage, Method 2 (flow cytometry); assay type: cell-based
Procedure: Method 2: 0.5 g of Isaria fumosoresea pure spore powder were transferred into an Erlenmeyer flask using a sterile spoon. 24.5 mL of fluid were dispersed using Ultra-Turrax (IKA; Type T 25 D) for 1 min at 3,000 rpm. After this, 2.0 mL were transferred in 20 sample bottles (Wheaton Serum vial, Type I) leaving little headspace and closed tight using crimpneck caps (Macherey—Nagel type N 13). Afterwards all sample bottles were transferred to an incubator set at 30° C. and stored for a given time.
In regular intervals a sample was retrieved from the storage location and analyzed for spore viability. For this purpose, the original samples were thoroughly homogenized. Aliquots of 0.5 g of each sample were transferred into 100 mL-Erlenmeyer flask. The flasks were filled up to 50 g using a sterile aqueous solution containing 0.1% Break Thru® 5240 (Evonik, Industries) and homogenized on a magnetic stirrer (Thermo Fisher Scientific: Cimarec™) at least for 15 min with 750 rpm to achieve the first dilution step (1:100 dilution). This dilution was used for further dilution.
Not all samples mixed well or mixed at all in 0.1% Break Thru 5240. For these samples, 500 μL Neo-wett (Kwizda Agro GmbH) and/or a small amount (knife tip) Metaupon®-OMT (LEUNA Tenside GmbH) were also added to the aqueous solution.
After homogenization 1 mL were transferred into a 1.5 mL tube and were centrifuged for 15 min at 14,000 rpm (Thermo Fisher Scientific, Type Megafuge 8R). The supernatant (=upper phase) was discarded by using a pipette. The tubes were filled up to 1 mL using a sterile aqueous solution containing 0.1% Neo-wett and homogenized by vortexing.
To assess fungal viability, a method based on flow cytometry was used.

[3] = tested on: Isaria fumosorosea spores; assay: spore viability of Isaria fumosorosea spores in carrier fluid after storage at 30° C., Method 1 (germination on agar); assay type: cell-based; settings: Method 1
Procedure: as §1, with “Method 1: 1.5 g” for “3 g”, “of Isaria fumosorosea” for “of P. lilacinum strain 251”, “spoon. 13.5” for “spoon. 12”
as §2
For evaluation of spore germination rate a 1:15000 dilution based on the 1:100 dilution achieved by multiple automated dilution (pipetting robot, 96 well plate) was prepared. Afterwards 12×12 cm agar plates were taken and spotted with 10 times 5 μL of each sample using an automated 12-Channel pipet. After all liquid is soaked up by agar the agar plates were incubated at 23° C. for 16 hours.

[4] = tested on: Penicillium bilaii (ATCC 20851) spores; assay: spore viability (germination rate on agar) of Penicillium bilaii spores in carrier fluid after storage at 30° C.; assay type: cell-based
Procedure: as §1, with “1.5 g” for “3 g”, “of Penicillium bilaii (ATCC 20851)” for “of P. lilacinum strain 251”, “spoon. 13.5” for “spoon. 12”
as §2
as §3, with “1:15000” for “1:30000”, “20°” for “25°”

[5] = tested on: Beauveria Bassiana spores; assay: spore viability (germination rate on agar) of Beauveria bassiana spores in carrier fluid after storage at 30° C.; assay type: cell-based
Procedure: as §1, with “1.5 g” for “3 g”, “of Beauveria Bassiana” for “of P. lilacinum strain 251”, “spoon. 13.5” for “spoon. 12”
as §2
as §3, with “1:15000” for “1:30000”, “20°” for “25°”

[6] = P. lilacinum strain 251 in the liquid, day 1
[7] = Purpureocillium lilacinum, 35 d

Compound: Polyethyleneglycol-400 monolaurate [Radiasurf 7423]
- spore viability [%] after 1 m (27-28 d) [1]: 93.8%
- spore viability [%] after 2 m (51-55 d) [1]: 79.7%
- spore viability [%] after 2 w (12-15 d) [1]: 91.4%
- spore viability [%] after 7 m (210 d) [1]: 36.9%
- spore viability [%] at day 1 [1]: 90.8%
- spore viability after storage for 2 or 3 months, respectively [1]: ≥ 80%
- spore viability [%] after 1 m (27 d) [2]: 42.3%
- spore viability [%] after 2 w (~14 d) [2]: 58.0%
- spore viability [%] at day 1 [2]: 86.7%

Compound: COC(C)COC(C)COC(C)=O (centres unmarked) [Dowanol DPMA, Dipropylene glycol methyl ether acetate]
- spore viability [%] at day 1 [1, 6]: 99.1%
- spore viability [%] after 3 m (87-92 d) ([1]; storage at 30° C., 87-92 d): 35.7%
- spore viability [%] after 5 w (35 d) ([1]; storage at 30° C., 35 d): 93.0%
- spore viability [%] at day 1 ([3]; I. fumosorosea, day 1): 87.7%
- spore viability [%] after 1 m (27 d) ([3]; storage at 30° C., 27 d): 63.6%
- spore viability [%] after 7 m (210 d) ([3]; storage at 30° C., 210 d): 31.4%

Compound: Tween 85
- spore viability [%] after 1 m (27 d) [2]: 98.0%
- spore viability [%] after 6 months [2]: 96.1*** %
- spore viability [%] at day 1 [2]: 98.9%
- spore viability after storage for 7 m at 30° C. [2]: ≥ 50%
- spore viability [%] after 2 months [4]: 92.0$ %
- spore viability [%] initial (1-2 d) [4]: 99.0%

Compound: Polyethylene glycol Monooleate [Alkamuls A]
- spore viability [%] after 1 m (27 d) [2]: 90.7%
- spore viability [%] after 2 w (~14 d) [2]: 93.0%
- spore viability [%] at day 1 [2]: 94.4%

Compound: CCCCOCCO [Butylcellosolve, Ethylenglycolmonobutylether, reference compound]
- decline in spore viability at day 1 and after storage ([1]; text summary of Table I): steep decline in spore viability

Compound: COCCOCCOCCOCCOC [Tetraglyme, Tetraethylenglycol diether]
- spore viability [%] after 1 m (27-28 d) [1]: 94.8%
- spore viability [%] after 2 m (51-55 d) [1]: 93.2%
- spore viability [%] after 2 w (12-15 d) [1]: 97.6%
- spore viability [%] after 7 m (210 d) [1]: 83.5%
- spore viability [%] at day 1 [1]: 97.2%
- spore viability after storage for 7 months at 30° C. (in words) ([1]; text summary of Table I): exceptional spore viability

Compound: Polyethylenglycol- 300 [Pluriol E300]
- spore viability [%] after 1 m (27 d) [2]: 87.0%
- spore viability [%] after 3 months [2]: 45.0* %
- spore viability [%] at day 1 [2]: 96.0%

Compound: 2-(2-Ethoxyethoxy)ethyl acetate; Diethylene glycol monoethyl ether acetate [n-Butyldiglycolacetat]
- spore viability [%] at day 1 [1, 6]: 93.2%
- spore viability [%] after 3 m (87-92 d) ([1]; storage at 30° C., 87-92 d): 82.7%
- spore viability [%] after 5 w (35 d) ([1]; storage at 30° C., 35 d): 89.3%

Compound: COCC(C)OCC(C)OC (centres unmarked) [Proglyde DMM, Dipropylene glycol dimethyl ether]
- spore viability [%] after 3 m (87-92 d) ([1]; Purpureocillium lilacinum): 75.4%
- spore viability [%] at day 1 ([1]; Purpureocillium lilacinum, 1 d): 98.8%
- spore viability [%] after 5 w (35 d) [1, 7]: 96.0%
- spore viability [%] at day 1 ([5]; Beauveria bassiana, 1 d): 88.4%
- spore viability [%] after 2 w (14 d) ([5]; Beauveria bassiana): 48.0%
- spore viability [%] after 5 w (35 d) ([5]; Beauveria bassiana): 21.8%
- spore viability [%] 3 m@30° C. (83-85 d) ([4]; Penicillium bilaii): 10.5%
- spore viability [%] 6 w@30° C. (41-43 d) ([4]; Penicillium bilaii): 29.6%
- spore viability [%] initial (1-2 d) ([4]; Penicillium bilaii): 54.6%

Compound: COC(C)COC(C)CO (centres unmarked) [Dowanol DPM, Dipropylene Glycol monomethyl ether]
- spore viability [%] at day 1 [1, 6]: 91.0%
- spore viability [%] after 2 w (12-15 d) ([1]; storage at 30° C., 12-15 d): 95.3%
- spore viability [%] after 1 m (27-28 d) ([1]; storage at 30° C., 27-28 d): 93.3%
- spore viability [%] after 2 m (51-55 d) ([1]; storage at 30° C., 51-55 d): 74.7%
- spore viability [%] at day 1 ([5]; Beauveria bassiana, day 1): 83.9%
- spore viability [%] after 2 w (14 d) ([5]; storage at 30° C.): 61.0%
- spore viability [%] after 5 w (35 d) ([5]; storage at 30° C.): 36.6%

Compound: CCCCCCOCCO [Hexylcellosolve, Ethylenglycolmonohexylester, reference compound]
- spore viability [%] after 3 m (87-92 d) [1]: 6.0%
- spore viability [%] after 5 w (35 d) [1]: 27.4%
- spore viability [%] at day 1 [1]: 79.5%
- decline in spore viability at day 1 and after storage ([1]; text summary of Table I): steep decline in spore viability

Compound: CCOCCOCCO [Carbitol, Diethylenglycolmonoethyl ether, reference compound]
- spore viability [%] after 1 m (27 d) [2]: 12.0%
- spore viability [%] after 2 w (~14 d) [2]: 13.7%
- spore viability [%] at day 1 [2]: 78.0%

Compound: CCCOCCO [Propylcellosolve, Ethylenglycolmonopropylether, reference compound]
- spore viability [%] after 3 m (87-92 d) [1]: 0.6%
- spore viability [%] after 5 w (35 d) [1]: 8.1%
- spore viability [%] at day 1 [1]: 76.2%
- decline in spore viability at day 1 and after storage ([1]; text summary of Table I): steep decline in spore viability

Compound: CC(=O)OCC(C)OC(C)=O (centres unmarked) [Dowanol PGDA, Propylenglycol Diacetat]
- spore viability [%] after 3 m (87-92 d) ([1]; Purpureocillium lilacinum): 88.4%
- spore viability after storage for 2 or 3 months, respectively ([1]; Purpureocillium lilacinum): ≥ 80%
- spore viability [%] at day 1 ([1]; Purpureocillium lilacinum, 1 d): 98.8%
- spore viability [%] after 5 w (35 d) [1, 7]: 98.2%
- spore viability [%] at day 1 ([2]; Isaria fumosorosea, 1 d): 97.0%
- spore viability [%] after 1 m (27 d) ([2]; Isaria fumosorosea, 27 d): 53.0%
- spore viability [%] at day 1 ([5]; Beauveria bassiana, 1 d): 90.6%
- spore viability [%] after 3 w (21 d) ([5]; Beauveria bassiana, 21 d): 51.6%
- spore viability [%] 3 m@30° C. (83-85 d) ([4]; Penicillium bilaii): 36.4%
- spore viability [%] 6 w@30° C. (41-43 d) ([4]; Penicillium bilaii): 69.3%
- spore viability [%] initial (1-2 d) ([4]; Penicillium bilaii): 93.6%

Compound: COCCOCCOCCO [Methoxytriglycol, Triethylenglycol monomethyl ether, reference compound]
- spore viability [%] after 3 m (87-92 d) ([1]; Purpureocillium lilacinum): 19.9%
- spore viability [%] at day 1 ([1]; Purpureocillium lilacinum, 1 d): 83.3%
- spore viability [%] after 5 w (35 d) [1, 7]: 55.3%
- decline in spore viability at day 1 and after storage ([1]; text summary of Table I): steep decline in spore viability
- spore viability [%] at day 1 ([5]; Beauveria bassiana, 1 d): 79.7%
- spore viability [%] after 2 w (14 d) ([5]; Beauveria bassiana): 12.3%
- spore viability [%] after 5 w (35 d) ([5]; Beauveria bassiana): 1.5%
- decline in spore viability after storage under given conditions ([5]; Table III, fluids not within the scope of the invention): steep decline in spore viability
- spore viability [%] 3 m@30° C. (83-85 d) ([4]; Penicillium bilaii): 30.3%
- spore viability [%] 6 w@30° C. (41-43 d) ([4]; Penicillium bilaii): 43.1%
- spore viability [%] initial (1-2 d) ([4]; Penicillium bilaii): 74.3%

Compound: CCCCOCCOCCOCCO [Triethylenglycol monobutylether, Triethylenglycol-monobutylether]
- spore viability [%] after 1 m (27-28 d) ([1]; Purpureocillium lilacinum): 57.5%
- spore viability [%] after 3 m (87-92 d) ([1]; Purpureocillium lilacinum): 50.8%
- spore viability [%] at day 1 ([1]; Purpureocillium lilacinum, 1 d): 77.5%

Compound: Tween 80
- spore viability [%] after 1 m (27 d) [2]: 72.0%
- spore viability [%] after 2 w (~14 d) [2]: 76.4%
- spore viability [%] at day 1 [2]: 96.2%
